For orientation: Ki means a measure of affinity in units of concentration, obtained from inhibition or displacement.

Structures can show the parent of a compound that is named as a salt.

In the experiment the target is human FLAP (Homo sapiens (Human), UniProt P20292). The experiment can be described thus: FLAP binding assay (HTRF format). The procedure: The ability of the compounds of the present invention to treat a FLAP-mediated disease and/or disorder, or associated symptoms or complications thereof, was determined using the following procedures. Binding assay data represent the average value obtained from two different assay plates, with samples run in duplicate on each plate. Human whole blood assay data represent a single replicate on an assay plate using whole blood from at least one healthy donor.
Sequence of human FLAP (P20292 whole entry): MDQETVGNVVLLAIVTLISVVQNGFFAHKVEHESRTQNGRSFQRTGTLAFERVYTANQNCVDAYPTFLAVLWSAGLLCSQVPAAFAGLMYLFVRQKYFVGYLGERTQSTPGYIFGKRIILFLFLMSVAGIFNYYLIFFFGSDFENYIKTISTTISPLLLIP
Data are expressed as a HTRF ratio.

Where [1] appears, read: Table 6 (additional runs), human FLAP wild type.
Where [2] appears, read: human FLAP wild type, a calculated value of 0.000 indicates Ki less than 1 nM.
Setting [3] is: human FLAP wild type, Table 6 (additional runs).

`CC(NS(=O)(=O)c1ccccc1-c1ccc(-c2cnc(N)cn2)c(F)c1)C(F)(F)F` (racemic) [Example 8, (racemic)-4′-(5-Aminopyrazin-2-yl)-3′-fluoro-N-(2,2,2-trifluoro-1-methylethyl)biphenyl-2-sulfonamide racemic] registered a Ki under setting [1] of 1.3 nM.

`Nc1cnc(-c2ccc(-c3ccccc3S(=O)(=O)NC3CC4CCC3C4)cc2F)cn1` (racemic) [Example 10, (racemic)-(endo)-4′-(5-Aminopyrazin-2-yl)-N-bicyclo[2.2.1]hept-2-yl-3′-fluorobiphenyl-2-sulfonamide racemic] gave a Ki under setting [1] of 2.7 nM. Same read-out and setting: the result for `Nc1cnc(-c2ccc(-c3ccccc3S(=O)(=O)N3CCN4CCCC4C3)cc2F)cn1` (racemic) [Example 61, racemic 5-[3-Fluoro-2′-(hexahydropyrrolo[1,2-a]pyrazin-2(1H)-ylsulfonyl)biphenyl-4-yl]pyrazin-2-amine] reads 15.9 nM; that for `Nc1cnc(-c2ccc(-c3ccccc3S(=O)(=O)N3CCCC(CCO)C3)cc2F)cn1` (racemic) [Example 71, racemic 2-(1-{[4′-(5-Aminopyrazin-2-yl)-3′-fluorobiphenyl-2-yl]sulfonyl}piperidin-3-yl)ethanol], 1.9 nM. Under setting [1], `CC(C)(C)OC(=O)NC1CCCN(S(=O)(=O)c2ccccc2-c2ccc(-c3cnc(N)cn3)c(F)c2)C1` (racemic) [Example 77, racemic tert-Butyl (1-{[4′-(5-aminopyrazin-2-yl)-3′-fluorobiphenyl-2-yl]sulfonyl}piperidin-3-yl)carbamate] registered a Ki of 3.2 nM. Still for that read-out and setting: the result for `Nc1cnc(-c2ccc(-c3ccccc3S(=O)(=O)N[C@H]3CCCC[C@@H]3O)cc2F)cn1` (racemic) [Example 120, racemic (trans)-4′-(5-Aminopyrazin-2-yl)-3′-fluoro-N-(2-hydroxycyclohexyl)biphenyl-2-sulfonamide] reads 1.1 nM. Take `Nc1cnc(-c2ccc(-c3ccccc3S(=O)(=O)N[C@H]3CCCC[C@@H]3CO)cc2F)cn1` (racemic) [Example 121, racemic (trans)-4′-(5-Aminopyrazin-2-yl)-3′-fluoro-N-[2-(hydroxymethyl)cyclohexyl]biphenyl-2-sulfonamide]: the Ki by setting is: under setting [1], 0.5 nM; under setting [2], less than 1 nM. With `Nc1cnc(-c2ccc(-c3ccccc3S(=O)(=O)N[C@@H]3CCCC[C@@H]3CO)cc2F)cn1` (racemic) [Example 122, racemic (cis)-4′-(5-Aminopyrazin-2-yl)-3′-fluoro-N-[2-(hydroxymethyl)cyclohexyl]biphenyl-2-sulfonamide], the affinity under setting [1], expressed as Ki, was 0.7 nM. Under setting [1], `Nc1ncc(-c2ccc(-c3ccccc3S(=O)(=O)N[C@H]3CCCC[C@H]3O)cc2F)cn1` (racemic) [Example 259, racemic (cis) 4′-(2-Aminopyrimidin-5-yl)-3′-fluoro-N-[(cis)-2-hydroxycyclohexyl]biphenyl-2-sulfonamide] had a Ki of 7.8 nM. On the same count and under the same terms, the result for `Nc1ncc(-c2ccc(-c3ccccc3S(=O)(=O)N[C@H]3CCCC[C@@H]3O)cc2F)cn1` (racemic) [Example 260, racemic (trans) 4′-(2-Aminopyrimidin-5-yl)-3′-fluoro-N-[(trans)-2-hydroxycyclohexyl]biphenyl-2-sulfonamide] reads 8.9 nM. As for `CC(NS(=O)(=O)c1ccccc1-c1ccc(-c2cnc3[nH]ccc3n2)c(F)c1)C(F)(F)F` (racemic) [Example 376, 3′-Fluoro-4′-(5H-pyrrolo[2,3-b]pyrazin-2-yl)N-N-(2,2,2-trifluoro-1-methylethyl)biphenyl-2-sulfonamide], the Ki runs as follows: under setting [1], 0.5 nM; under setting [2], less than 1 nM. With `Nc1cnc(-c2ccc(-c3cccnc3S(=O)(=O)C3CCNC3)cc2F)cn1` (racemic) [Example 803, 5-(2-Fluoro-4-(2-(pyrrolidin-3-ylsulfonyl)pyridin-3-yl)phenyl)pyrazin-2-amine hydrochloride], the inhibition constant (Ki) was determined as 106 nM (Table 5, human FLAP wild type) and 106 nM under setting [3]. Regarding `C[C@H](NS(=O)(=O)c1ccccc1-c1ccc(-c2cnc(N)cn2)c(F)c1)C(O)c1ccccc1` (stereo in doubt) [Example 83, 4′-(5-Aminopyrazin-2-yl)-3′-fluoro-N-[(1S,2R)-2-hydroxy-1-methyl-2-phenylethyl]biphenyl-2-sulfonamide], the affinity under setting [1] corresponds to a Ki of 0.7 nM. Still for that read-out and setting: the result for `CN1CCN([C@H]2CN(S(=O)(=O)c3ccccc3-c3ccc(-c4cnc(N)cn4)c(F)c3)C[C@@H]2O)CC1` (stereo in doubt) [Example 188, (3S,4S)-1-{[4′-(5-Aminopyrazin-2-yl)-3′-fluorobiphenyl-2-yl]sulfonyl}-4-(4-methylpiperazin-1-yl)pyrrolidin-3-ol] reads 201 nM; that for `CC(CO)NS(=O)(=O)c1ccccc1-c1ccc(-c2cnc3[nH]ccc3n2)c(F)c1` (stereo in doubt) [Example 378, 3′-Fluoro-N-[(1R)-2-hydroxy-1-methylethyl]-4′-(5H-pyrrolo[2,3-b]pyrazin-2-yl)biphenyl-2-sulfonamide], 0.6 nM. Under setting [1], `CC(CO)NS(=O)(=O)c1ccccc1-c1ccc(-c2cnc3[nH]ccc3n2)c(F)c1` (stereo in doubt) [Example 380, 3′-Fluoro-N-[(1S)-2-hydroxy-1-methylethyl]4′-(5H-pyrrolo[2,3-b]pyrazin-2-yl)biphenyl-2-sulfonamide] yielded a Ki of 1.1 nM. Turning to `CC(CO)NS(=O)(=O)c1ccccc1-c1ccc(-c2cnc(N)c(C#N)n2)c(F)c1` (stereo in doubt) [Example 410, 4′-(5-amino-6-cyanopyrazin-2-yl)-3′-fluoro-N-[(1R)-2-hydroxy-1-methylethypiphenyl-2-sulfonamide], affinity under setting [3] was put at a Ki of 3.7 nM.

The compound `CC(O)CNS(=O)(=O)c1ccccc1-c1ccc(-c2cnc(N)c(C#N)n2)c(F)c1` (stereo in doubt) [Example 415, 4′-(5-Amine-6-cyanopyrazin-2-yl)-3′-fluoro-N-[(R)-2-hydroxypropyl]biphenyl-2-sulfonamide] showed a Ki under setting [3] of 10.9 nM. On to `CS(=O)(=O)c1ccccc1-c1ccc(-c2cnc(N)cn2)c(F)c1` [Example 1, 5-(3-Fluoro-2′-(methylsulfonyl)-[1,1′-biphenyl]-4-yl)pyrazin-2-amine], for which the Ki under setting [1] is 352 nM. Still for that read-out and setting: the result for `CS(=O)(=O)Nc1ccccc1-c1ccc(-c2cnc(N)cn2)c(F)c1` [Example 2, N-[4′-(5-Aminopyrazin-2-yl)-3′-fluorobiphenyl-2-yl]methanesulfonamide] reads 178 nM; that for `CC(C)(C)NS(=O)(=O)c1ccccc1-c1ccc(-c2cnc(N)cn2)c(F)c1` [Example 4, 4′-(5-Aminopyrazin-2-yl)-N-(tert-butyl)-3′-fluoro-[1,1′-biphenyl]-2-sulfonamide], 0.4 nM; that for `Nc1cnc(-c2ccc(-c3ccccc3S(=O)(=O)NC3CCCCC3)cc2F)cn1` [Example 6, 4′-(5-Aminopyrazin-2-yl)-N-cyclohexyl-3′-fluorobiphenyl-2-sulfonamide], 1.1 nM.

Under setting [1], `CC(C)CNS(=O)(=O)c1ccccc1-c1ccc(-c2cnc(N)cn2)c(F)c1` [Example 7, 4′-(5-Aminopyrazin-2-yl)-3′-fluoro-N-(2-methylpropyl)biphenyl-2-sulfonamide] showed a Ki of 0.8 nM. Same read-out and setting: the result for `Nc1cnc(-c2ccc(-c3ccccc3S(=O)(=O)NCC3CCC3)cc2F)cn1` [Example 9, 4′-(5-Aminopyrazin-2-yl)-N-(cyclobutylmethyl)-3′-fluorobiphenyl-2-sulfonamide] reads 1.5 nM; that for `CC1(NS(=O)(=O)c2ccccc2-c2ccc(-c3cnc(N)cn3)c(F)c2)CCC1` [Example 11, 4′-(5-Aminopyrazin-2-yl)-3′-fluoro-N-(1-methylcyclobutyl)biphenyl-2-sulfonamide], 1.6 nM; that for `CCC(C)(C)NS(=O)(=O)c1ccccc1-c1ccc(-c2cnc(N)cn2)c(F)c1` [Example 12, 4′-(5-Aminopyrazin-2-yl)-N-(1,1-dimethylpropyl)-3′-fluorobiphenyl-2-sulfonamide], 1.9 nM. Under setting [1], `CC(C)(NS(=O)(=O)c1ccccc1-c1ccc(-c2cnc(N)cn2)c(F)c1)C(F)(F)F` [Example 13, 4′-(5-4minopyrazin-2-yl)-3′-fluoro-N-(2,2,2-trifluoro-1,1-dimethylethyl)biphenyl-2-sulfonamide] yielded a Ki of 1.2 nM. On the same count and under the same terms, the result for `Nc1cnc(-c2ccc(-c3ccccc3S(=O)(=O)NC3CCCC3)cc2F)cn1` [Example 14, 4′-(5-Aminopyrazin-2-yl)-N-cyclopentyl-3′-fluorobiphenyl-2-sulfonamide] reads 3.5 nM; that for `CNS(=O)(=O)c1ccccc1-c1ccc(-c2cnc(N)cn2)c(F)c1` [Example 15, 4′-(5-Aminopyrazin-2-yl)-3′-fluoro-N-methylbiphenyl-2-sulfonamide], 11.1 nM. Compound `CCNS(=O)(=O)c1ccccc1-c1ccc(-c2cnc(N)cn2)c(F)c1` [Example 16, 4′-(5-Aminopyrazin-2-yl)-N-ethyl-3′-fluorobiphenyl-2-sulfonamide] had a Ki under setting [1] of 5 nM. Still for that read-out and setting: the result for `Nc1cnc(-c2ccc(-c3ccccc3S(=O)(=O)NCCc3ccccc3)cc2F)cn1` [Example 17, 4′-(5-Aminopyrazin-2-yl)-3′-fluoro-N-(2-phenylethyl)biphenyl-2-sulfonamide] reads 1.7 nM. On the same count and under the same terms, the result for `Nc1cnc(-c2ccc(-c3ccccc3S(=O)(=O)N[C@H](c3ccccc3)C(F)(F)F)cc2F)cn1` [Example 18] reads 1.8 nM; that for `Nc1cnc(-c2ccc(-c3ccccc3S(=O)(=O)N[C@@H](c3ccccc3)C(F)(F)F)cc2F)cn1` [Example 19], 2.2 nM.

On to `Nc1cnc(-c2ccc(-c3ccccc3S(=O)(=O)NC3Cc4ccccc4C3)cc2F)cn1` [Example 21, 4′-(5-Aminopyrazin-2-yl)-N-(2,3-dihydro-1H-inden-2-yl)-3′-fluorobiphenyl-2-sulfonamide], for which affinity under setting [1] was put at a Ki of 2.1 nM. Under setting [1], `Nc1cnc(-c2ccc(-c3ccccc3S(=O)(=O)N[C@@H]3CCc4ccccc43)cc2F)cn1` [Example 23, (R)-4′-(5-Aminopyrazin-2-yl|)-N-[(1R)-2,3-dihydro-1H-inden-1-yl]-3′-fluorobiphenyl-2-sulfonamide] registered a Ki of 1.2 nM.
